{"source": "patent US4889855A", "about": "“Heterocyclic compounds and their preparation and use” (priority 1987, dated 1989)", "key": {"[1]": {"test_system": "NMDA (N-methyl-D-aspartate) receptors", "conditions": "background; cited from earlier work"}, "quisqualate receptor [2]": {"target": "quisqualate receptor", "assay": "3H-AMPA binding (Test 1)", "conditions": "displacement of 50% of the specific binding of 3H-AMPA (5 nM), rat cerebral cortical membranes, 0° C., 30 min", "text": "The quisqualate receptor binding activity of the compounds of the present invention can be illustrated by determining their capability for displacing radioactively labelled 2-amino-3hydroxy-5-methyl-4-isoxazolepropionic acid (AMPA) from the quisqualatee type receptors.\nThe displacement activity of the compounds may be shown by determining the IC50 value which represents the concentration (μg/ml) which causes a displacement of 50% of the specific binding of ^3 H-AMPA.\n^3 H-AMPA binding (Test 1)\n500 μl of thawed rat cerebral cortical membrane homogenate in Tris-HCl (30 mM), CaCl2 (2.5 mM) and KSCN (100 mM) pH 7.1 were incubated at 0° C. for 30 min. with 25μl ^3 H-AMPA (5 nM final concentration) and the test compound and buffer. Nonspecific binding was determined by incubation with L-glutamic acid (600 μM final concentration). The binding reaction was terminated by adding 5 ml of ice-cold buffer followed by filtration through Whatman GF/C glass fibre filters and 2×5 ml wash with ice-cold buffer. Bound radioactivity was measured by scintillation counting. IC50 was determined by Hill analysis of at least four concentrations of test compound."}, "quisqualate receptor [3]": {"test_system": "quisqualate receptor", "assay": "Antagonism of quisqualic acid induced 22Na+-release from striatal slices (Test 2)", "format": "cell-based", "conditions": "reduces quisqualic acid (2 μg/ml) stimulated 22Na+ efflux by 50%, rat striatal slices", "method": "The quisqualate antagonism is measured by determining the EC50 value which represents the concentration which reduces the rate of quisqualic acid stimulated sodium efflux by 50%.\nAntagonism of quisqualic acid induced ^22 Na^+ -release (Test 2)\nSlices from rat striatum were preincubated with ^22 Na^+ for 30 min. After the ^22 Na^+ loading period, the slices were successively and every minute transferred through a series of tubes, each containing 1.5 ml of a non-radioactive physiological solution saturated with O2, with the help of a basket shaped sieve. Quisqualic acid (2 μg/ml) was present in the last 5 tubes and the compound to be tested was present in the same 5 tubes plus 3 tubes before. The amount of radioactivity in each washout tube as well as that left in the slices at the end of the experiment was measured by scintillation counting. EC50 -values were calculated by Hill analysis from at least three different concentrations of test compound as the concentration of test compound which reduces the efflux rate of ^22 Na^+ -ions to 50% of the efflux rate in the absence of test compound."}, "NMDA receptor": {"test_system": "NMDA receptor", "assay": "Inhibition of NMDA stimulated 3H-GABA release from cultured cerebral cortex interneurons (Test 3)", "format": "cell-based", "conditions": "inhibits 50% of NMDA (3 μg/ml) induced 3H-GABA release, mouse cerebral cortex interneurons", "text": "The NMDA antagonistic properties of the compounds is illustrated by determining their capability to antagonize NMDA stimulated ^3 H-GABA release from cultured mouse cortex neurons.\nThe NMDA antagonistic activity of the compounds may be shown by determining the IC50 value, which represents the concentration (μg/ml) which inhibits 50% of NMDA induced ^3 H-GABA release.\nInhibition of NMDA stimulated ^3 H-GABA release from cultured mouse cerebral cortex interneurons (Test 3) Release experiments are performed using the model described by Drejer et al. (Life Sci. 38, 2077 (1986)). To cerebral cortex interneurons cultured in petri dishes (30 mm) are added 100 μg/ml 3-vinyl-GABA one […] before the experiment in order to inhibit degradation of GABA in the neurons. 30 min before the experiment 5 μCi ^3 H-GAGA is added to each culture and after this preloading period the cells are washed twice with a HEPES (N-2 Hydroxyethylpiperazine-N'-2-ethanesulfonic acid) buffered saline (HBS) containing 10 mM HEPES, 135 mM NaCl, 5 mM KCl, 0.6 mM MgSO4, 1.0 mM CaCl2 and 6 mM D-glucose; pH 7 and placed in a superfusion system. This system consists of a peristaltic pump continuously delivering thermostated 37° C. superfusion medium from a reservoir to the top of a slightly-tilted petri dish. The cell monolayer at the bottom of the dish is covered with a piece of nylon mesh to facilitate dispersion of medium over the cell layer. The medium is continuously collected from the lower part of the dish and delivered to a fraction collector. Initially, the cells are superfused with HBS for 15 min (flow rate 2 ml/min). Then cells are stimulated for 30 sec every 4 min by changing the superfusion medium from HBS to a corresponding medium containing NMDA and antagonists according to the following scheme: […]\nstimulation no. 1: 3 μg/ml NMDA stimulation no. 2: 3 μg/ml NMDA+0.3 μg/ml antagonist stimulation no. 3: 3 μg/ml NMDA+3 μg/ml antagonist\nTest substances are dissolved in water or 48% ethanol. The final ethanol concentration in the assay must not exceed 0.1%.\nThe release of ^3 H-GABA in the presence of NMDA (stimulated relase in cpm) are corrected for the mean basal release (cpm) before and after the stimulation.\nThe stimulated release in the presence of antagonists are expressed relative to the stimulated release by NMDA alone and the IC50 value for the antagonist is calculated (the concentration (μg/ml) of the test substance which inhibits 50% of the NMDA induced ^3 H-GABA release) either from a dose response curve or from the formula: [formula] where Co is stimulated release in control assays and Cx is the stimulated release in the test assay (the calculation assumes normal mass-action interaction). 25-75% inhibition of the NMDA stimulation must be obtained, before calculation of IC50."}, "kainate receptors": {"test_system": "kainate receptors", "conditions": "background; cited from earlier work"}, "quisqualate receptors": {"test_system": "quisqualate receptors", "conditions": "background; cited from earlier work"}}, "data": [{"smiles": "O=C(O)[C@@H]1CCCN[C@H]1C(=O)O", "note": "(relative stereo) [trans-2,3-PDA, trans-2,3-piperidine dicarboxylic acid]", "values": [{"measurement": "agonist activity on NMDA receptors", "setting": "[1]", "value": "strong to moderate agonist activity"}]}, {"smiles": "O=[N+]([O-])c1cccc2c1c([N+](=O)[O-])cc1nc(O)c(O)nc12", "note": "[2,3-Dihydroxy-6,7-dinitrobenzo(f)quinoxaline]", "values": [{"measurement": "Test 1 IC50", "setting": "quisqualate receptor [2]", "value": 0.06, "unit": "µg/mL"}, {"measurement": "Test 2 EC50", "setting": "quisqualate receptor [3]", "value": 2.8, "unit": "µg/mL"}, {"measurement": "Test 3 IC50", "setting": "NMDA receptor", "value": 0.3, "unit": "µg/mL"}]}, {"smiles": "O=[N+]([O-])c1cc2nc(O)c(O)nc2c2c([N+](=O)[O-])cccc12", "note": "[2,3-Dihydroxy-6,10-dinitrobenzo(f)quinoxaline]", "values": [{"measurement": "Test 1 IC50", "setting": "quisqualate receptor [2]", "value": 0.85, "unit": "µg/mL"}, {"measurement": "Test 3 IC50", "setting": "NMDA receptor", "value": 0.97, "unit": "µg/mL"}]}, {"smiles": "O=[N+]([O-])c1cc2nc(O)c(O)nc2c2ccccc12", "note": "[2,3-Dihydroxy-6-nitrobenzo(f)quinoxaline]", "values": [{"measurement": "Test 1 IC50", "setting": "quisqualate receptor [2]", "value": 0.69, "unit": "µg/mL"}, {"measurement": "Test 2 EC50", "setting": "quisqualate receptor [3]", "value": 14, "unit": "µg/mL"}, {"measurement": "Test 3 IC50", "setting": "NMDA receptor", "value": 0.39, "unit": "µg/mL"}]}, {"smiles": "O=[N+]([O-])c1cc2nc(O)c(O)nc2c2cccnc12", "note": "[2,3-Dihydroxy-6-nitropyrido(2,3-f)quinoxaline]", "values": [{"measurement": "Test 1 IC50", "setting": "quisqualate receptor [2]", "value": 0.61, "unit": "µg/mL"}, {"measurement": "Test 3 IC50", "setting": "NMDA receptor", "value": 1.5, "unit": "µg/mL"}]}, {"smiles": "N[C@@H](CCC(=O)NCC(=O)O)C(=O)O", "note": "[3-glutamyl-glycine]", "values": [{"measurement": "antagonism / selectivity at kainate receptors", "setting": "kainate receptors", "value": "some selectivity for kainate receptors"}]}, {"smiles": "Nc1cc2nc(O)c(O)nc2c2ccccc12", "note": "[6-Amino-2,3-dihydroxybenzo(f)quinoxaline]", "values": [{"measurement": "Test 1 IC50", "setting": "quisqualate receptor [2]", "value": 1.1, "unit": "µg/mL"}, {"measurement": "Test 2 EC50", "setting": "quisqualate receptor [3]", "value": 23, "unit": "µg/mL"}]}, {"smiles": "O=[N+]([O-])c1cccc2c(Br)cc3nc(O)c(O)nc3c12", "note": "[6-bromo-2,3-dihydroxy-10-nitrobenzo(f)quinoxaline]", "values": [{"measurement": "Test 1 IC50", "setting": "quisqualate receptor [2]", "value": 9.2, "unit": "µg/mL"}, {"measurement": "Test 3 IC50", "setting": "NMDA receptor", "value": 0.25, "unit": "µg/mL"}]}, {"smiles": "O=[N+]([O-])c1cc2nc(O)c(O)nc2c2c1CCCC2", "note": "[7,8,9,10-Tetrahydro-2,3-dihydroxy-6-nitrobenzo(f)quinoxaline]", "values": [{"measurement": "Test 1 IC50", "setting": "quisqualate receptor [2]", "value": 0.17, "unit": "µg/mL"}, {"measurement": "Test 3 IC50", "setting": "NMDA receptor", "value": 0.092, "unit": "µg/mL"}]}, {"smiles": "Cc1onc(O)c1CC(N)C(=O)O", "note": "(stereo not drawn) [AMPA, 2-amino-3-hydroxy-5-methyl-4-isoxazolepropionic acid]", "values": [{"measurement": "agonist activity on quisqualate receptors", "setting": "quisqualate receptors", "value": "potent agonists"}]}, {"smiles": "N[C@H](CCCC(=O)O)C(=O)O", "note": "[D-2-amino-adipic acid]", "values": [{"measurement": "antagonist activity on NMDA receptors", "setting": "[1]", "value": "moderate antagonist activity"}]}, {"smiles": "N[C@H](CCCCCP(=O)(O)O)C(=O)O", "note": "[D-APH, 2-amino-7-phosphonoheptanoic acid]", "values": [{"measurement": "antagonist activity on NMDA receptors", "setting": "[1]", "value": "most potent and selective antagonists"}]}, {"smiles": "N[C@H](CCCP(=O)(O)O)C(=O)O", "note": "[D-APV, 2-amino-5-phosphono-valeric acid]", "values": [{"measurement": "antagonist activity on NMDA receptors", "setting": "[1]", "value": "most potent and selective antagonists"}]}, {"smiles": "N[C@H](CCC(=O)O)C(=O)O", "note": "[D-glutamic acid]", "values": [{"measurement": "agonist activity on NMDA receptors", "setting": "[1]", "value": "strong to moderate agonist activity"}]}, {"smiles": "CCOC(=O)CCC(N)C(=O)OCC", "note": "(stereo not drawn) [GDEE, Glutamic acid diethyl esteer]", "values": [{"measurement": "antagonist activity at quisqualate receptors", "setting": "quisqualate receptors", "value": "selective but very weak antagonist"}, {"measurement": "antagonism / selectivity at kainate receptors", "setting": "kainate receptors", "value": "relatively insensitive to antagonism"}]}, {"smiles": "N[C@H](C(=O)O)c1cc(=O)[nH]o1", "note": "[Ibotenic acid]", "values": [{"measurement": "agonist activity on NMDA receptors", "setting": "[1]", "value": "strong to moderate agonist activity"}]}, {"smiles": "N[C@@H](CCC(=O)O)C(=O)O", "note": "[L-glutamic acid]", "values": [{"measurement": "agonist activity on quisqualate receptors", "setting": "quisqualate receptors", "value": "potent agonists"}]}, {"smiles": "N[C@@H](CCS(=O)(=O)O)C(=O)O", "note": "[L-homocysteic acid]", "values": [{"measurement": "agonist activity on NMDA receptors", "setting": "[1]", "value": "strong to moderate agonist activity"}]}, {"smiles": "N[C@H](CCC[C@H](N)C(=O)O)C(=O)O", "note": "[diaminopimelic acid]", "values": [{"measurement": "antagonist activity on NMDA receptors", "setting": "[1]", "value": "moderate antagonist activity"}]}, {"smiles": "N[C@@H](Cn1oc(=O)[nH]c1=O)C(=O)O", "note": "[quisqualic acid]", "values": [{"measurement": "agonist activity on quisqualate receptors", "setting": "quisqualate receptors", "value": "activated selectively"}]}]}
